Laboratory results taken from patent publication US20250073355A1, “CD44-BINDING PEPTIDE REAGENTS AND METHODS” (THE REGENTS OF THE UNIVERSITY OF MICHIGAN, priority 2021, published 2025).

Tests used:
[1] = tested on: orthotopic SK-Hep1 xenograft tumors; experiment: Whole body fluorescence imaging of orthotopic human HCC xenograft tumors
Experimental: (§1) Human HCC xenograft tumors were implanted orthotopically in female nude athymic mice. First, ˜5×10^6 SK-Hep1 tumor cells were injected subcutaneously into the hind limb flank. Tumors were then monitored twice a week and allowed to grow to 1-2 cm in diameter for 10-30 days. A small horizontal incision was made below the sternum to expose the liver. The liver was incised with a sharp scalpel horizontally in parallel with the surface of the exposed liver. A piece of the subcutaneous tumor with dimensions of ˜1×1×1 mm^3 was implanted into the incision, and then the site was sealed with absorbable hemostatic material (surgical, Johnson & Johnson). The liver was returned to its original position after confirming hemostasis.

[2] = tested on: orthotopic human HCC xenograft tumors; experiment: Intraoperative laparoscopic imaging of orthotopic human HCC xenograft tumors; assay type: in vivo; conditions: […] post-injection, n=8 mice
Experimental: A self-build imaging module was attached to standard surgical laparoscope (#49003 AA, HOPKINS II Straight Forward Telescope 0°, Karl Storz, El Segundo, CA, USA) to collect WL and NIR FL images. WL illumination (MCWHL5, Thorlabs, Newton, NJ, USA) and FL excitation source (λex=785 nm, #iBEAM-SMART-785-S, Toptica Photonics) were coupled into the laparoscope. WL and NIR FL images are collected, simultaneously, by a color CCD camera (#GX-FW-28S5C-C, Point Grey Research, Richmond, BC V6W 1 K7, Canada) and a NIR CCD camera (Orca R-2, Hamamatsu Photonics, Hamamatsu City, Shizuoka Pref., Japan) with a laser power of 1.2 mW, respectively.
After completion of imaging, the mice were euthanized, and the livers were resected. A human specific anti-cytokeratin was stained on tumor sections by IHC to further confirm the implanted human derived HCC tumors, FIG. 16H. Overexpression of CD44 was confirmed by IHC and IF, FIG. 161,J. Representative histology (H&E) of the tumor is shown, FIG. 16K.

[3] = tested on: orthotopic human HCC xenograft tumors (SK-Hep1); experiment: Photoacoustic imaging of orthotopic human HCC xenograft tumors
Experimental: as §1
IRDye800-labeled target and control peptides (300 μM in 200 μL PBS) were intravenously injected in mice bearing orthotopical SK-Hep1 tumors. An unlabeled peptide (1.5 mM, 100 μL) was injected 30 min prior to the labeled peptide to compete for binding. ICG (2.46 mg/kg) was injected intravenously as a control. Three-dimensional (3D) images were acquired from 0 to 48 h post injection and reconstructed using PAI tomography system (Nexus 128, Endra) using Iex=774 nm excitation. The photoacoustic signal intensity was measured from the two-dimensional (2D) maximum intensity projection (MIP) images, and the pre-injection images were used for background.
The photoacoustic images were collected to evaluate the time course for peptide uptake, FIG. 14A. […] Indocyanine green (ICG) was also administered (2.46 mg/kg) for comparison.

[4] = tested on: orthotopic human HCC xenograft tumors and major organs; experiment: Peptide biodistribution in tumor-bearing mice; assay type: in vivo
From the text: The animals were euthanized at peak uptake after intravenous injection of the target and control peptides. Major organs, including heart, spleen, lung, liver, brain, stomach, kidney, intestine, were resected and exposed for white light and fluorescence imaging to measure peptide biodistribution. White light and NIR fluorescence images were collected from the major organs, FIG. 17.

[5] = tested on: SK-Hep1 cells; experiment: Apparent association time constant; set-up: species or system human; conditions: binding to SK-Hep1 cells
[6] = Animal necropsy (histology, hematology); assay type: in vivo, mice; conditions: 48 hours after systemic administration
Experimental: Whole blood was collected for evaluation of hematology and chemistry. Liver, kidney, heart, lung, spleen, stomach, intestine, and brain were harvested and submitted for routine histology (H&E). All slides were evaluated by a liver pathologist.

[7] = tested on: CD44 downstream signaling (pAKT, pErk1/2); experiment: Western blot of CD44 downstream cell signaling; assay type: cell-based, human; conditions: 4 or 300 μM, 15 min, SK-Hep1 cells
Experimental: Western blots were performed to evaluate markers for activation of downstream cell signaling, FIG. 11. SK-Hep1 cells were incubated with either hyaluronan (HA) or peptide to evaluate activation of downstream signalling after binding to CD44. […] of low molecular weight HA (GLR001, R&D Systems) was added for 15 min. Peptides are added at concentrations of 4 and 300 μM for 15 min. Anti-CD44 antibody (#ab189524, Abcam), anti-AKT (#4691, Cell Signaling), anti-phospho-AKT (#9271, Cell Signaling), anti-ERK1/2 (#ab17942, Abcam,), anti-phospho-ERK1/2 (#ab50011, Abcam), and anti-β-Actin (#4967, Cell Signaling Technology) were used per manufacturer's instructions.

[8] = tested on: SK-Hep1 cells
Experimental: The apparent dissociation constant kd for peptide binding to cells was measured to assess the binding affinity. IRDye800-labeled target peptides were serially diluted in PBS at concentrations of 0, 10, 20, 40, 80, 100, and 200 nM. ˜10^5 SK-Hep1 cells were incubated with the peptides at 4° C. for 1 hour, washed with cold PBS, and the mean fluorescence intensities were measured using flow cytometry. The equilibrium dissociation constant kd=1/ka was calculated by performing a least squares fit of the data to the non-linear equation l=(l0+lmaxka [X])/([…]). l0 and lmax are the initial and maximum fluorescence intensities, corresponding to no peptide and at saturation, respectively, and [X] represents the concentration of the bound peptide. Prism 5.0 software (GraphPad Inc) was used to calculate kd.

[9] = tested on: SK-Hep1 cells; experiment: MTT cytotoxicity assay; assay type: cell-based, human; conditions: up to 200 μg/mL, 24 hours
Experimental: The CD44-binding and control peptides were serially diluted over a range of concentrations and incubated with SK-Hep1 cells seeded in 96-well plates for 24 hours. The media was then removed, and MTT solution (100 μL, 0.5 mg/mL) was added. After 4 hours for incubation, the MTT solution was removed, and 150 μL of DMSO was added to each well to solubilize formazan crystals produced by living cells. Absorbance at Aabs=570 (test) and 630 nm (reference) was measured using a plate reader (VersaMax™ Tunable Microplate Reader). The half-maximum inhibitory concentration (IC50) was measured.
An MTT assay was performed to evaluate the cytotoxicity of CD44 peptides. Peptides were incubated with SK-Hep1 cells in increasing concentrations up to 200 μg/mL for 24 hours.

[10] = tested on: SK-Hep1 cells (CD44+); experiment: Confocal fluorescence microscopy of binding to SK-Hep1 cells; assay type: cell-based, human
Experimental: The cells were washed with PBS 1× and incubated with 4 μM of either target or control peptide for 3 min. The cells were then washed 3× in PBS, fixed with 4% paraformaldehyde (PFA) for 8 min, washed 3× with PBS then incubated with 2% BSA, 1% goat serum in PBS for 30 min. […] Confocal fluorescence images were collected on Leica SP8 confocal microscope using a 63× oil-immersion objective. Fluorescence intensities were quantified using custom MATLAB (Mathworks) software.

[11] = Serum stability by analytical RP-HPLC; assay type: in vitro ADME; conditions: mouse serum, up to 24 hours, read-out: half-life T1/2 in serum (converted)
[12] = tested on: human HCC specimens; experiment: Peptide validation in human HCC specimens ex vivo (immunofluorescence)
Experimental: A tissue microarray (TMA) of human HCC was generated to investigate specific binding by the CD44 peptide to human HCC. Formalin-fixed, paraffin-embedded (FFPE) sections of human liver were obtained from the archived tissue bank in the Department of Pathology. The specimens were washed 3× in xylene for 3 min, 100% ethanol for 3 min, 95% ethanol for 3 min, 70% ethanol for 3 min, rinsed in H2O for 2 min. Antigen unmasking was performed by boiling the slides in 10 mM sodium citrate buffer with 0.05% Tween at pH 6.0 for 15 min. The slides were cooled to RT, and were washed in H2O 3× for 5 min. Blocking was performed with DAKO protein blocking agent (X0909, DAKO) for 1 hour at RT. The peptides at 1 μM concentration were incubated for 10 min at RT. The sections were washed 3× in PBST for 3 min, and incubated with 400 μL at 1:500 dilution of recombinant anti-CD44 (#ab189524, Abcam) overnight at 4° C. The sections were then washed 3× in PBST for 5 min. A 1:500 dilution of AF488-labeled secondary antibody (goat anti rabbit Alexa Fluor®488) was added to each section and incubated for 1 hour at RT. The secondary antibody solution was removed and washed 3× with PBST for 5 min. The sections were then mounted with ProLong Gold reagent containing DAPI (Invitrogen). The fluorescence images of each specimen were collected using confocal microscopy (SP8, Leica), and the mean fluorescence intensity from each image was measured from 3 boxes with dimensions of 20×20 μm^2 using custom MATLAB software. Regions of saturated image intensities were avoided.

[13] = 1 μM peptide, 10 min, FFPE human sections

For CC1(C)C(/C=C/C=C/C=C/C=C2\N(CCCCS(=O)(=O)O)c3ccc4ccccc4c3C2(C)C)=[N+](CCCCS(=O)(=O)[O-])c2ccc3ccccc3c21 [ICG, Indocyanine green], the “T/B ratio, whole body fluorescence imaging (mean±SD)” value ([1]; peak uptake ([…]), intravenous, n=5 mice) was 0.46±0.03, the “T/B ratio, laparoscopic fluorescence imaging (mean±SD)” value [2] was 0.87±0.2 and the “T/B ratio, photoacoustic imaging (mean±SD)” value ([3]; […] post-injection, intravenous, n=5 mice) was 1.39±0.13. For the same compound, the “time of peak intensity (uptake) in tumor, photoacoustic” value ([3]; female, nude athymic, mouse, in vivo, iv) was > 24 h.
With CC(C)C[C@H](NC(=O)[C@H](Cc1ccc(O)cc1)NC(=O)[C@H](CO)NC(=O)[C@H](Cc1c[nH]c2ccccc12)NC(=O)CNC(=O)[C@H](CCCCN)NC(=O)[C@@H](N)Cc1c[nH]c2ccccc12)C(=O)N[C@@H](Cc1c[nH]c2ccccc12)C(=O)N[C@H](C(=O)N[C@@H](CCC(N)=O)C(=O)N[C@@H](CCC(N)=O)C(=O)N[C@@H](C)C(=O)NCC(=O)NCC(=O)NCC(=O)N[C@@H](CO)C(=O)N[C@@H](CSC1CC(=O)N(CCNC(=O)CCCCCN2C(=CC=C3CCCC(C=CC4=[N+](CCCCS(=O)(=O)[O-])c5ccc(S(=O)(=O)O)cc5C4(C)C)=C3Oc3ccc(S(=O)(=O)O)cc3)C(C)(C)c3cc(S(=O)(=O)O)ccc32)C1=O)C(N)=O)[C@@H](C)O (stereo partly drawn) [WKG*-IRDye800] the “intensity in adjacent normal liver region (mean±SD)” value ([4]; […] after intravenous injection) was 0.92±0.45, the route of clearance ([4]; mouse, in vivo) was “primarily renal clearance” and the “apparent association time constant (time)” value [5] was 6.8 min. The “apparent association time constant k” value [5] was 0.26 min⁻¹, the “acute toxicity, hematology and chemistry” value ([6]; n=3 mice) was “No acute peptide toxicity was observed” and the “toxicity on histology (H&E) of vital organs” value ([6]; normal healthy mice) was “No signs of toxicity”. The “time of return to baseline, whole body fluorescence” value ([1]; post intravenous injection) was ~24 h, the “effect on CD44 downstream signaling (phosphorylation of AKT and Erk1/2)” value [7] was “no effect” and the “improved binding affinity by comparison with previously reported CD44 peptides” value [8] was 3 fold. For the same compound, the Kd ([8]; read-out: apparent dissociation constant kd, SK-Hep1 cells, 4° C., 1 hour, flow cytometry) was 43 nM, the “effect on cell viability (MTT)” value [9] was “no effect on cell viability until the highest concentrations were reached” and the “fluorescence intensity for binding to SK-Hep1 cells compared with Hep 3B cells” value ([10]; SK-Hep1 (CD44+) vs Hep 3B (CD44−)) was “Significantly greater”. The “Pearson correlation coefficient ρ of binding co-localization with anti-CD44-AF488” value ([10]; merged image, SK-Hep1 cell surface) was 0.81, the “time of return to baseline, photoacoustic” value ([3]; post intravenous injection) was ~24 h and the half-life [11] was 5.1 h. For the same compound, the “fluorescence intensity, HCC (mean±SD)” value [12, 13] was 1.47±0.50, the “fluorescence intensity, adenoma (mean±SD)” value [12, 13] was 0.93±0.35 and the “fluorescence intensity, cirrhosis (mean±SD)” value [12, 13] was 0.67±0.34. The “fluorescence intensity, normal human liver (mean±SD)” value [12, 13] was 0.56±0.21 and the “binding to the cell surface of HCC, immunofluorescence” value ([12]; human HCC sections) was “strong binding”.
